Drawing on ChEMBL document CHEMBL5226387, “A Drimane Meroterpenoid Borate as a Synchronous Ca+ Oscillation Inhibitor from the Coral-Associated Fungus Alternaria sp. ZH-15” (J Nat Prod, 2023), this text covers IC50 for 2 compounds.

Type in all cases: functional, cell-based
Assay [1] can be described thus: Neuroprotective activity in C57BL/6J mouse primary neocortical neurons assessed as inhibition of spontaneous Ca2+ oscillation frequency measured for 15 mins by Fluo-4 dye based fluorescence analysis. Particulars: Primary neocortical neuron, 0.25 h.
A short description of assay [2]: Neuroprotective activity in C57BL/6J mouse primary neocortical neurons assessed as inhibition of spontaneous Ca2+ oscillation amplitude measured for 15 mins by Fluo-4 dye based fluorescence analysis. To be noted: Primary neocortical neuron, 0.25 h.
The nature of assay [3]: Neuroprotective activity in C57BL/6J mouse primary neocortical neurons assessed as inhibition of 4-AP-induced spontaneous Ca2+ oscillation frequency treated with compound 15 mins prior to 4-AP challenge and measured after 10 mins by Fluo-4 dye based fluorescence analysis. To be noted: Primary neocortical neuron.
A short description of assay [4]: Neuroprotective activity in C57BL/6J mouse primary neocortical neurons assessed as inhibition of 4-AP-induced spontaneous Ca2+ oscillation amplitude treated with compound 15 mins prior to 4-AP challenge and measured after 10 mins by Fluo-4 dye based fluorescence analysis. Particulars: Primary neocortical neuron.

The IC50 is the point on the concentration scale where inhibition reaches its midpoint. As for `COc1cc(-c2cc3c(c(=O)o2)C[C@@]24OB(O)O[C@]5(CC[C@@]2(C)O3)C(C)(C)C=CC(=O)[C@]45C)cc(OC)c1OC`, the IC50 was 15 µM in assay [1], 16 µM in assay [2], 12 µM in assay [3] and 34 µM in assay [4].
`COc1cc(-c2cc3c(c(=O)o2)C[C@]2(O)[C@@]4(C)C(=O)C=CC(C)(C)[C@]4(O)CC[C@@]2(C)O3)cc(OC)c1OC` [TERRITREM B]: the IC50 in assay [1] was 8.6 µM; in assay [2], 5.4 µM; in assay [3], 14 µM; in assay [4] it was 27 µM.
